According to patent US20250213707A1, “COMPOUND FOR INCREASING EFFICACY OF ONCOLYTIC VIRUSES” (ABLEVIA BIOTECH GMBH, priority 2022, published 2025):

System: IgG from human donors (anti-AAV antibodies)
Assay: Screen for anti-AAV antibodies in human sera, 2452 linear 15-amino-acid AAV peptides on microarrays (Table 1)
Type: binding
Design: key to group I: X: the deduplicated aggregate of the respective top 10 peptide hits for each donor was compiled and designated as group I; key to group II: X: the deduplicated aggregate of the respective top 25 peptide hits for each donor was compiled and designated as group II; key to group III: X: the deduplicated aggregate of the respective top 50 peptide hits for each donor was compiled and designated as group III
Settings: for group I: membership in deduplicated aggregate of top 10 peptide hits for each donor
Protocol: 2452 linear peptides derived from the sequences of 16 different AAVs and with a sequence length of 15 amino-acids each were synthesized.
Samples obtained from human donors were screened for antibodies against these AAV-derived peptides immobilized on microarrays. To this end, IgG was prepared from blood obtained from the human donors by protein G purification. Each IgG sample was incubated with the peptide microarrays and Ig binding signals were detected by fluorescence. All antibody binding signals to the peptides on the arrays were background subtracted and ranked for each sample and a deduplicated aggregate of the respective top 250 peptide hits for each donor with the corresponding protein sequence of origin (as obtained from UniProt or other sources) was compiled (designated as group IV). Further, the deduplicated aggregate of the respective top 50 peptide hits for each donor was compiled and designated as group III. Further, the deduplicated aggregate of the respective top 25 peptide hits for each donor was compiled and designated as group II. Finally, the deduplicated aggregate of the respective top 10 peptide hits for each donor was compiled and designated as group I.
Altogether, group I contains 110 distinct peptide hits (assigned to the corresponding AAV vectors in Table 1), group II contains 289 distinct peptide hits, group III contains 428 distinct peptide hits and group IV contains 1271 distinct peptide hits. Evidently, group I is a subset of group II which in turn is a subset of group III which in turn is a subset of group IV. Groups I-IV correspond to the top 4.4%, […], 17.5% and 51.8%, respectively, of all peptides screened.

[1] = X = peptide in the deduplicated aggregate of the top 50 peptide hits for each donor (top 17.5% of all peptides screened), linear 15-amino-acid AAV peptides on microarrays, human donor IgG, fluorescence
[2] = X = peptide belongs to the deduplicated aggregate of the top 50 peptide hits for each donor, linear 15-amino-acid AAV peptides, IgG binding by fluorescence
[3] = human donor IgG binding to linear 15-amino-acid AAV peptides on microarray, fluorescence
[4] = membership in deduplicated aggregate of top 25 peptide hits for each donor, human donor IgG binding to linear 15-amino-acid AAV peptides on microarray, fluorescence
[5] = membership in deduplicated aggregate of top 50 peptide hits for each donor, human donor IgG binding to linear 15-amino-acid AAV peptides on microarray, fluorescence
[6] = X = peptide belongs to the deduplicated aggregate of the top 25 peptide hits for each donor, linear 15-amino-acid AAV peptides, IgG binding by fluorescence

Which “group III” value [1] does the source give for “447 (YNNHLYKQISNGTSG; REGION 1..15: note = peptide derived from viral capsid protein) [compound 447]” here?
The value was “X”.

“318 (DKGEPVNEADAAALE; REGION 1..15: note = peptide derived from viral capsid protein) [compound 318]” was tested. Which “group III” value [2] did it give?
Its value is “X”.

How did the “group III” value [2] turn out when “328 (STVQVFTDSEYQLPY; REGION 1..15: note = peptide derived from viral capsid protein) [compound 328]” was run?
Its value is “X”.

What does the source list for “GTNTMATGSGAPMA (REGION 1..14: note = peptide derived from viral capsid protein) [SEQ ID NO: 1927]”?
group I [3]: X; group II [4]: X; group III [5]: X

How did the “group III” value [1] turn out when “438 (TTGGTANTQTLGFSQ; REGION 1..15: note = peptide derived from viral capsid protein) [compound 438]” was run?
Its value is “X”.

Which “group III” value [2] does the source give for “346 (TVAVNLQSSSTDPAT; REGION 1..15: note = peptide derived from viral capsid protein) [compound 346]” here?
Its value is “X”.

How did the “group I” value [3] turn out when DAAALEHDKAYDQQ [SEQ ID NO: 1940] was run?
The value was “X”.

And the “group II” value [4]?
Its value is “X”.

What about the “group III” value [5] of the same substance?
The value was “X”.

How did the “group I” value [3] turn out when “DSESVPDPQPIGEP (REGION 1..14: note = peptide derived from viral capsid protein) [SEQ ID NO: 1942]” was run?
Its value is “X”.

What about the “group II” value [4] of the same substance?
Its value is “X”.

What about the “group III” value [5] of the same substance?
Its value is “X”.

“326 (PVATEQYGSVSTNLQ; REGION 1..15: note = peptide derived from viral capsid protein) [compound 326]” was tested. Which “group III” value [2] did it give?
Its value is “X”.

For “366 (MVWQDRDVYLQGPIW; REGION 1..15: note = peptide derived from viral capsid protein) [compound 366]”, which “group III” value [2] is on record?
Its value is “X”.

Which results are given for “SEPRPIGTRYLTRN (REGION 1..14: note = peptide derived from viral capsid protein) [SEQ ID NO: 1964]”?
group I [3]: X; group II [4]: X; group III [5]: X

For “370 (FITQYSTGQVSVEIE; REGION 1..15: note = peptide derived from viral capsid protein) [compound 370]”, which “group III” value [2] is on record?
Its value is “X”.

With “335 (VKEVTQNDGTTTIAN; REGION 1..15: note = peptide derived from viral capsid protein) [compound 335]” as the substance, how does the “group III” value [2] read?
The value was “X”.

With “294 (GDSESVPDPQPIGEP; REGION 1..15: note = peptide derived from viral capsid protein) [compound 294]” as the substance, how does the “group III” value [2] read?
Its value is “X”.

“410 (ENVPFHSSYAHSQSL; REGION 1..15: note = peptide derived from viral capsid protein) [compound 410]” was tested. Which “group III” value [1] did it give?
The value was “X”.

Which “group III” value [2] does the source give for “299 (SRTQSTGGTAGTQQL; REGION 1..15: note = peptide derived from viral capsid protein) [compound 299]” here?
Its value is “X”.

“476 (PSTSSDAEAGPSGSQ; REGION 1..15: note = peptide derived from viral capsid protein) [compound 476]” was tested. Which “group III” value [1] did it give?
Its value is “X”.

With “334 (RQWWKLKPGPPPPKP; REGION 1..15: note = peptide derived from viral capsid protein) [compound 334]” as the substance, how does the “group III” value [2] read?
The value was “X”.

How did the “group III” value [1] turn out when “453 (FGYSTPWGYFDFNRF; REGION 1..15: note = peptide derived from viral capsid protein) [compound 453]” was run?
Its value is “X”.

Which results are given for “KNTPVPADPPTTFS (REGION 1..14: note = peptide derived from viral capsid protein) [SEQ ID NO: 1953]”?
group I [3]: ×; group II [4]: X; group III [5]: X

For “314 (EHDKAYDRQLDSGDN; REGION 1..15: note = peptide derived from viral capsid protein) [compound 314]”, which “group III” value [2] is on record?
The value was “X”.

Which “group II” value [6] does the source give for “283 (EFLGLEAGPPKPKPN; REGION 1..15: note = peptide derived from viral capsid protein) [compound 283]” here?
Its value is “X”.

And the “group III” value [2]?
The value was “X”.

For “479 (DSTTTIANNLTSTVQ; REGION 1..15: note = peptide derived from viral capsid protein) [compound 479]”, which “group III” value [1] is on record?
The value was “X”.

For “315 (PFPADVFMVPQYGYL; REGION 1..15: note = peptide derived from viral capsid protein) [compound 315]”, which “group III” value [2] is on record?
The value was “X”.

For “382 (FHSSYAHSQSLDRLM; REGION 1..15: note = peptide derived from viral capsid protein) [compound 382]”, which “group III” value [2] is on record?
The value was “X”.

Which results are given for QQRVSTTLSQNNNS [SEQ ID NO: 1963]?
group I [3]: X; group II [4]: X; group III [5]: X

For “406 (NNNSEFAWPGASSWA; REGION 1..15: note = peptide derived from viral capsid protein) [compound 406]”, which “group III” value [1] is on record?
Its value is “X”.

How did the “group III” value [2] turn out when “336 (VTQNDGTTTIANNLT; REGION 1..15: note = peptide derived from viral capsid protein) [compound 336]” was run?
The value was “X”.

With “383 (FNGLDKGEPVNAADA; REGION 1..15: note = peptide derived from viral capsid protein) [compound 383]” as the substance, how does the “group III” value [2] read?
The value was “X”.

With “341 (TFSYTFEDVPFHSSY; REGION 1..15: note = peptide derived from viral capsid protein) [compound 341]” as the substance, how does the “group III” value [2] read?
The value was “X”.

“297 (DSLVNPGVAMATHDD; REGION 1..15: note = peptide derived from viral capsid protein) [compound 297]” was tested. Which “group III” value [2] did it give?
The value was “X”.

“332 (ISSQSGASNDNHYFG; REGION 1..15: note = peptide derived from viral capsid protein) [compound 332]” was tested. Which “group III” value [2] did it give?
The value was “X”.

With “EYQLPYVLGSAHQG (REGION 1..14: note = peptide derived from viral capsid protein) [SEQ ID NO: 1948]” as the substance, how does the “group I” value [3] read?
The value was “X”.

What about the “group II” value [4] of the same substance?
The value was “X”.

What about the “group III” value [5] of the same substance?
Its value is “X”.

How did the “group III” value [2] turn out when “338 (PLGLVEEPVKTAPGK; REGION 1..15: note = peptide derived from viral capsid protein) [compound 338]” was run?
Its value is “X”.

“330 (DSGDNPYLKYNHADA; REGION 1..15: note = peptide derived from viral capsid protein) [compound 330]” was tested. Which “group III” value [2] did it give?
Its value is “X”.

How did the “group III” value [2] turn out when “290 (NVDFAVNTDGTYSEP; REGION 1..15: note = peptide derived from viral capsid protein) [compound 290]” was run?
The value was “X”.

Which “group III” value [2] does the source give for “357 (SLDRLMNPLIDQYLY; REGION 1..15: note = peptide derived from viral capsid protein) [compound 357]” here?
The value was “X”.

With “322 (KSVNVDFTVDTNGVY; REGION 1..15: note = peptide derived from viral capsid protein) [compound 322]” as the substance, how does the “group III” value [2] read?
The value was “X”.

Which “group I” value [3] does the source give for “SQSLDRLMNPLIDQ (REGION 1..14: note = peptide derived from viral capsid protein) [SEQ ID NO: 1966]” here?
The value was “X”.

And the “group II” value [4]?
Its value is “X”.

And the “group III” value [5]?
Its value is “X”.

“384 (HSSYAHSQSLDRLMN; REGION 1..15: note = peptide derived from viral capsid protein) [compound 384]” was tested. Which “group III” value [2] did it give?
The value was “X”.

For “359 (SVPDPQPLGEPPATP; REGION 1..15: note = peptide derived from viral capsid protein) [compound 359]”, which “group III” value [2] is on record?
Its value is “X”.

What does the source list for “289 (YLEGNMLITSESETQ; REGION 1..15: note = peptide derived from viral capsid protein) [compound 289]”?
group II [6]: X; group III [2]: X
